IC50 data for 13 molecules are collected here from patent publication US8916577B2, “Tricyclic derivatives, process for their preparation and their use as kinase inhibitors” (Nerviano Medical Sciences S.R.L., priority 2011, dated 2014).

This test addresses MPS1 (Homo sapiens (Human), UniProt P33981). Description: Biochemical assay for inhibitors of MPS1 kinase activity (33P-ATP trans-phosphorylation, Dowex). The note with it: 5 nM MPS1, 15 microM ATP, P38-β-tide 200 microM. The source says:
Cloning, Expression and Purification of Recombinant MPS1 Full Length Protein.
MPS1 full length (corresponding to residues 2-857 of the full length sequence, see Swiss-Prot accession number P33981) was PCR amplified from the full-length human MPS1 gene present in house as clone pGEX4t_MPS1.
Baculoviruses were generated by cotransfecting Sf9 insect cells with the expression vector and the viral DNA using the BaculoGold® transfection kit (Pharmingen). Viral supernatant was recovered after 5 days and subjected to 3 rounds of amplification to increase viral titer. Recombinant protein was produced by infecting High5 insect cells. After 72 hours of infection at 21° C., cells were recovered, pelletted and freezed at −80° C. For purification of recombinant protein, pellet was thawed, resuspended in lysis buffer (PBS, NaCl 150 mM, Glycerol 10%, CHAPS 0.1%, DTT 20 mM, protease and phosphatase inhibitors) and lysed by Gaulin. Lysate was cleared by centrifugation and loaded on a GST affinity column. After extensive wash, recombinant protein was cleaved by a specific protease and eluted by incubation.
To get a fully activated enzyme, the protein was then subjected to auto-phosphorylation in presence of ATP 1 mM at 25° C. for 2 hours in kinase buffer (Hepes pH7.5 50 mM, MgCl2 2.5 mM, MnCl2 1 mM, DTT 1 mM, phosphatase inhibitors); ATP was then removed whit a desalting column.
Biochemical Assay for Inhibitors of MPS1 Kinase Activity
The inhibitory activity of putative kinase inhibitors and the potency of selected compounds were determined using a trans-phosphorylation assay.
Specific peptide or protein substrates are trans-phosphorylated by their specific ser-thr or tyr kinase in the presence of ATP traced with ^33P-γ-ATP, and in the presence of their own optimal buffer and cofactors.
At the end of the phosphorylation reaction, more than 98% unlabeled ATP and radioactive ATP is captured by an excess of the ion exchange dowex resin; the resin then settles down to the bottom of the reaction plate by gravity.
Supernatant is subsequently withdrawn and transferred into a counting plate, then evaluated by P-counting.
The buffer for MPS1 assay was composed of HEPES 50 mM, at pH 7.5, with 2.5 mM MgCl2, 1 mM MnCl2, 1 mM DTT, 3 microM Na3VO4, 2 mM P-glycerophosphate and 0.2 mg/mL BSA.
The assay was run with a final concentration MPS1 of 5 nM, in the presence of 15 microM ATP and 1.5 nM ^33P-γ-ATP; the substrate was P38-β-tide, used at 200 microM.
The test mix consisted of:
1) 3× Enzyme mix (done in Kinase Buffer 3×), 5 microL/well
2) 3× substrate and ATP mix (done in ddH2O), together with ^33P-γ-ATP, 5 microL/well
3) 3× test compounds (diluted into ddH2O—3% DMSO)—5 microL/well
a) for percent inhibition studies (HTS), individual dilution plates at 1 mM are diluted at a 3× concentration (30 microM) in ddH2O (3% DMSO=final concentration) using a Beckman NX automated pipetting platform. The same instrument is used for distributing the diluted mother plates into the test plates. b) for IC50 determination (KSS platform), 100 μl of each compound at 1 mM in 100% DMSO are transferred from the original plate into the first column of another 96 well plate (A1 to G1); well H1 is left empty for the internal standard inhibitor, usually staurosporine.
An automated station for serial dilutions (Biomek FX, Beckman) is used for producing 1:3 dilutions in 100% DMSO, from line A1 to A10, and for all the seven compounds in the column. Moreover, 4-5 copies of daughter plates are prepared by reformatting 5 microL of this first set of 100% DMSO dilution plates into 384 deep well-plates: one copy of the daughter plates with the serial dilutions of test compounds will be thaw the day of the experiments, reconstituted at a 3× concentration with water and used in the IC50 determination assays. In a standard experiment, the highest concentration (3×) of all compounds is 30 microM, while the lowest one is 1.5 nM. […]

Structures can show the parent of a compound that is named as a salt.

Chain of MPS1 (P33981 2-857): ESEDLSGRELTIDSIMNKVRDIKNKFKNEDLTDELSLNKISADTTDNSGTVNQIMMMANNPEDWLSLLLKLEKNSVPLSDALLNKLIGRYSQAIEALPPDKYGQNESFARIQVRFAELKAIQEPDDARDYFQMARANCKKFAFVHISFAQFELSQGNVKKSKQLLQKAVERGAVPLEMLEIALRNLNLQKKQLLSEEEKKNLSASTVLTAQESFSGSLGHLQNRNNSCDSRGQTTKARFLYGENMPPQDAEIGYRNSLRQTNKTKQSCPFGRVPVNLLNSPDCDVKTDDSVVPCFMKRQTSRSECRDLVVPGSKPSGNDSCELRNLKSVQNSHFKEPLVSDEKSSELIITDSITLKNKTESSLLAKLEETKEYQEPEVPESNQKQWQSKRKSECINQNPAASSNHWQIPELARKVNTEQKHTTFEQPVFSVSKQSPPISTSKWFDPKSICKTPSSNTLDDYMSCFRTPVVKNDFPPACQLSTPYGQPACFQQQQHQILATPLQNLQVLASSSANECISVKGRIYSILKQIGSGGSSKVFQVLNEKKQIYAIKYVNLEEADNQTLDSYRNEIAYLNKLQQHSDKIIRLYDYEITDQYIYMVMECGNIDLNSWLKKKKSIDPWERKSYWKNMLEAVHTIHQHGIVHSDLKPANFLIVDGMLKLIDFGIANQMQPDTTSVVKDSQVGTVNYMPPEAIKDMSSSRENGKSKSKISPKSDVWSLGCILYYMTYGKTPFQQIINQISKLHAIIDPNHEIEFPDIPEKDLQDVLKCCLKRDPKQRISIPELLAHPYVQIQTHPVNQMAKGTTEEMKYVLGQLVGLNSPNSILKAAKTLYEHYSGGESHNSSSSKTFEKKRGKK

By IC50 is commonly meant the concentration that inhibits the measured activity by half. Read a low IC50 as greater potency in that assay. For the molecule `COc1cc(N2CCN(C)CC2)ccc1Nc1ncc2c(n1)-c1c(c(C(=O)NC3CCCCC3)nn1C)CCC2` [Compound 28, N-cyclohexyl-9-{[2-methoxy-4-(4-methylpiperazin-1-yl)phenyl]amino}-1-methyl-1,4,5,6-tetrahydropyrazolo[4′,3′:6,7]cyclohepta[1,2-d]pyrimidine-3-carboxamide], the IC50 came to 249 nM.

As to `CCc1cccc(CC)c1NC(=O)c1c2c(nn1C)-c1nc(Nc3ccc(N4CCN(C)CC4)cc3OC)ncc1CCC2` [Compound 97, N-(2,6-diethylphenyl)-9-{[2-methoxy-4-(4-methylpiperazin-1-yl)phenyl]amino}-2-methyl-2,4,5,6-tetrahydropyrazolo[4′,3′:6,7]cyclohepta[1,2-d]pyrimidine-3-carboxamide], the IC50 worked out at 853 nM.

Consider `COc1cc(N2CCN(C)CC2)ccc1Nc1ncc2c(n1)-c1c(c(C(=O)Nc3ccccc3)nn1C)CCC2` [Compound 8, 9-{[2-methoxy-4-(4-methylpiperazin-1-yl)phenyl]amino}-1-methyl-N-phenyl-1,4,5,6-tetrahydropyrazolo[4′,3′:6,7]cyclohepta[1,2-d]pyrimidine-3-carboxamide], for which the IC50 amounted to 353 nM.

Regarding `COc1cc(Br)ccc1Nc1ncc2c(n1)-c1c(c(C(N)=O)nn1C)CCC2` [Compound 1, 9-[(4-bromo-2-methoxyphenyl)amino]-1-methyl-1,4,5,6-tetrahydropyrazolo[4′,3′:6,7]cyclohepta[1,2-d]pyrimidine-3-carboxamide], the IC50 is 421 nM.

For `CNC(=O)c1nn(C)c2c1CCCc1cnc(Nc3ccc(Br)cc3OC)nc1-2` [Compound 32, 9-[(4-bromo-2-methoxyphenyl)amino]-N,1-dimethyl-1,4,5,6-tetrahydropyrazolo[4′,3′:6,7]cyclohepta[1,2-d]pyrimidine-3-carboxamide], the IC50 turned out to be 277 nM.

As for `CCc1cccc(CC)c1NC(=O)c1nn(C)c2c1CCCc1cnc(Nc3ccc(C(=O)NC4CCN(C)CC4)cc3OC)nc1-2` [Compound 35, N-(2,6-diethylphenyl)-9-({2-methoxy-4-[(1-methylpiperidin-4-yl)carbamoyl]phenyl}amino)-1-methyl-1,4,5,6-tetrahydropyrazolo[4′,3′:6,7]cyclohepta[1,2-d]pyrimidine-3-carboxamide], the IC50 was found to be 66 nM.

Take `CCc1cccc(CC)c1NC(=O)c1onc2c1CCCc1cnc(Nc3ccc(N4CCN(C)CC4)cc3OC)nc1-2` [Compound 101, N-(2,6-diethylphenyl)-9-{[2-methoxy-4-(4-methylpiperazin-1-yl)phenyl]amino}-5,6-dihydro-4H-isoxazolo[4′,3′:6,7]cyclohepta[1,2-d]pyrimidine-3-carboxamide]: it took 308 nM to reach half-maximal inhibition (IC50).

`CCc1cccc(CC)c1NC(=O)c1nn(C)c2c1CCCc1cnc(Nc3ccc(C(=O)N4CCCN(C)CC4)cc3OC(F)(F)F)nc1-2` [Compound 43, N-(2,6-diethylphenyl)-1-methyl-9-({4-[(4-methyl-1,4-diazepan-1-yl)carbonyl]-2-(trifluoromethoxy)phenyl}amino)-1,4,5,6-tetrahydropyrazolo[4′,3′:6,7]cyclohepta[1,2-d]pyrimidine-3-carboxamide] registered an IC50 of 199 nM.

In turn, `CCc1cccc(CC)c1NC(=O)c1nn(C)c2c1CCCc1cnc(Nc3ccc(N4CCN(C)CC4)cc3OC)nc1-2` [Compound 4, N-(2,6-diethylphenyl)-9-{[2-methoxy-4-(4-methylpiperazin-1-yl)phenyl]amino}-1-methyl-1,4,5,6-tetrahydropyrazolo[4′,3′:6,7]cyclohepta[1,2-d]pyrimidine-3-carboxamide] returned an IC50 of 184 nM.

In turn, `CCc1cccc(CC)c1NC(=O)c1noc2c1CCCc1cnc(Nc3ccc(N4CCN(C)CC4)cc3OC)nc1-2` [Compound 99, N-(2,6-diethylphenyl)-9-{[2-methoxy-4-(4-methylpiperazin-1-yl)phenyl]amino}-5,6-dihydro-4H-isoxazolo[4′,5′:6,7]cyclohepta[1,2-d]pyrimidine-3-carboxamide] yielded an IC50 of 134 nM.

In turn, `CCc1cccc(CC)c1NC(=O)c1nn(CC(F)(F)F)c2c1CCCc1cnc(Nc3ccc(N4CCN(C)CC4)cc3OC)nc1-2` [Compound 56, N-(2,6-diethylphenyl)-9-{[2-methoxy-4-(4-methylpiperazin-1-yl)phenyl]amino}-1-(2,2,2-trifluoroethyl)-1,4,5,6-tetrahydropyrazolo[4′,3′:6,7]cyclohepta[1,2-d]pyrimidine-3-carboxamide] had an IC50 of 862 nM.

`CCc1cccc(C)c1NC(=O)c1nn(C)c2c1CCCc1cnc(Nc3ccc(N4CCN(C)CC4)cc3OC)nc1-2` [Compound 27, N-(2-ethyl-6-methylphenyl)-9-{[2-methoxy-4-(4-methylpiperazin-1-yl)phenyl]amino}-1-methyl-1,4,5,6-tetrahydropyrazolo[4′,3′:6,7]cyclohepta[1,2-d]pyrimidine-3-carboxamide]: it took 189 nM to reach half-maximal inhibition (IC50).

On to `CCc1cccc(CC)c1NC(=O)c1nn(CCO)c2c1CCCc1cnc(Nc3ccc(N4CCC(N(C)C)CC4)cc3OC)nc1-2` [Compound 71, N-(2,6-diethylphenyl)-9-({4-[4-(dimethylamino)piperidin-1-yl]-2-methoxyphenyl}amino)-1-(2-hydroxyethyl)-1,4,5,6-tetrahydropyrazolo[4′,3′:6,7]cyclohepta[1,2-d]pyrimidine-3-carboxamide trifluoroacetate], for which the IC50 came out at 174 nM.
